Patent US9346820B2, “HIV-1 protease inhibitors having gem-di-fluoro bicyclic P2-ligands” (priority 2013, dated 2016)
Values joined by “and” are separate entries in the source; they are usually repeats but may differ in a detail not shown here. Identical values can stand only once. Like-named read-outs stand apart in the source and are kept apart here.

Tests used:
[1] = tested on: HIV-1LAI; assay: Drug susceptibility MTT assay, MT-2 cells exposed to HIV-1LAI; format: cell-based; settings: for Selectivity Index: ratio of CC50 to EC50 against HIV-1LAI
Description: (§1) The susceptibility of HIV-1LAI to various drugs was determined as previously described with minor modifications. Briefly, MT-2 cells (10^4/ml) were exposed to 100 50% tissue culture infectious doses (TCID50) of HIV-1LAI in the presence or absence of various concentrations of drugs in 96-well microculture plates and were incubated at 37° C. for 7 days. After 100 μl of the medium was removed from each well, 3-(4,5-dimetylthiazol-2-yl)-2,5-diphenyltetrazolium bromide (MTT) solution (10 μl, 7.5 mg/ml in phosphate-buffered saline) was added to each well in the plate, followed by incubation at 37° C. for 2 h. […] All assays were performed in duplicate or triplicate. […] To determine the sensitivity of primary HIV-1 isolates to drugs, phytohemagglutinin-stimulated peripheral blood mononuclear cells (PHA-PBMC) (10^6/ml) were exposed to 50 TCID50 of each primary HIV-1 isolate and cultured in the presence or absence of various concentrations of drugs in 10-fold serial dilutions in 96-well microculture plates. In determining the drug susceptibility of certain laboratory HIV-1 strains, MT-4 cells were employed as target cells as previously described with minor modifications. In brief, MT-4 cells (10^5/ml) were exposed to 100 TCID50 of drug-resistant HIV-1 strains in the presence or absence of various concentrations of drugs and were incubated at 37° C. On day 7 of culture, the supernatants were harvested and the amounts of p24 Gag protein were determined by using a fully automated chemiluminescent enzyme immunoassay system (Lumipulse F: Fujirebio Inc., Tokyo). […] All assays were performed in duplicate or triplicate. PHA-PBMs were derived from a single donor in each independent experiment. Thus, for obtaining the data, three different donors were recruited.

[2] = tested on: HIV-1MDR/G; assay: microbe, parasite or virus in culture; format: cell-based; settings: for EC50: Human immunodeficiency virus 1, read-out: EC50 HIV-1MDR/G (X4); for fold change of EC50 HIV-1MDR/G vs HIV-1ERS104pre: number in parentheses
Description: (§2) All primary HIV-1 strains were passaged once or twice in 3-day-old phytohemagglutinin activated peripheral blood mononuclear cells (PHA-PBM), and the culture supernatants were stored at −80° C. until use.
as §1

[3] = tested on: HIV-1MDR/JSL; assay: microbe, parasite or virus in culture; format: cell-based; settings: for EC50: Human immunodeficiency virus 1, read-out: EC50 HIV-1MDR/JSL (R5); for fold change of EC50 HIV-1MDR/JSL vs HIV-1ERS104pre: number in parentheses
Description: as §2, §1

[4] = tested on: HIV-1MDR/C; assay: microbe, parasite or virus in culture; format: cell-based; settings: for EC50: Human immunodeficiency virus 1, read-out: EC50 HIV-1MDR/C (X4); for fold change of EC50 HIV-1MDR/C vs HIV-1ERS104pre: number in parentheses
Description: as §2, §1

[5] = tested on: HIV-1MDR/B; assay: microbe, parasite or virus in culture; format: cell-based; settings: for EC50: Human immunodeficiency virus 1, read-out: EC50 HIV-1MDR/B (X4); for fold change of EC50 HIV-1MDR/B vs HIV-1ERS104pre: number in parentheses
Description: as §2, §1

[6] = tested on: HIV-1MDR/TM; assay: microbe, parasite or virus in culture; format: cell-based; settings: for EC50: Human immunodeficiency virus 1, read-out: EC50 HIV-1MDR/TM (X4); for fold change of EC50 HIV-1MDR/TM vs HIV-1ERS104pre: number in parentheses
Description: as §2, §1

[7] = tested on: HIV-1MDR/MM; assay: microbe, parasite or virus in culture; format: cell-based; settings: for EC50: Human immunodeficiency virus 1, read-out: EC50 HIV-1MDR/MM (R5); for fold change of EC50 HIV-1MDR/MM vs HIV-1ERS104pre: number in parentheses
Description: as §2, §1

[8] = Partition and distribution coefficients, shake-flask method; format: physicochemical; settings: for Concentration in octanol^(b): n-octanol used for logD assay; for Concentration in octanol^(a): n-octanol used for logPOW determination; for Log DOct/Tris pH 7.40: pH 7.4; for Concentration in tris buffer / Concentration in water: shake flask, 100 μM, 230 nm
Description: On day −1 of the experimental setting, saturation of 1-octanol (CH3 (CH2)6CH2OH) (Nacalai Tesque, Kyoto, Japan) water and tris-buffered saline (10X working solution 20 mM Tris, pH 7.4 and 0.9% NaCl, Sigma-Aldrich, St. Louis, Mo.) took place. Four different flasks were used: One containing 50 ml of water plus 100 ml of 1-octanol, the second flask contained 1-octanol saturated with water adding 50 ml of 1-octanol and 100 ml of water. The same ratios and volumes were kept for 1-octanol saturated with tris-buffer and tris-buffer saturated with 1-octanol. The flasks were sealed and placed into a room temperature bio shaker for 24 hours at 90 revolutions per minute. […] Successive dilutions were made to obtain concentrations of 10 μM, 1 μM and 0.1 μM. A standard curve was generated on a light spectrophotometer (DU Series 700, Beckman Coulter Fullerton, Calif.) at 230 nanometer absorbances.
On day 1 of the experiment, the lipid and liquid interfaces were separated, and compounds were diluted again from 20 mM DMSO to 100 μM using the 1-octanol, water and Tris-buffered saline obtained from the shake-flask assay. The resulting diluted compounds were then added to separate serum tubes containing equal proportions of 1-octanol and water, and 1-octanol and Tris-buffered saline. The solution was handshaken for 5 minutes and then centrifuged at 3,500 rpm and room temperature for 20 minutes. Finally, the compounds were recovered from the 1-octanol, Tris-buffer and water interfaces and then measured on a light spectrophotometer.
The values for logP and logD were obtained by applying the following mathematical formulas: […]
The addition of fluorine atoms is generally expected to confer greater lipophilicity on nucleoside analogs and certain compounds (37-39). […] 1-Octanol, organic alcohol, and water were used for logP determination, while tris-buffered saline (pH 7.4) and water were utilized for logD determination. Prior to obtaining the actual values, a standard curve was generated as a reference and drug concentrations attained for each compartment (1-octanol, water and tris-buffered saline) were measured on a light spectrophotometer (at 230 nanometer absorbance) as previously described by Rak et al. (40).
DRV was used as a control. N-octanol, an organic alcohol, and water were used for logP determination, while tris buffer and water were utilized for the logD assay. Prior to the retrieval of actual values a standard curve was generated as a reference. The drug concentrations for each compartment (octanol, water and tris buffer) were measured at 230 nanometer absorbances using a light spectrophotometer. Assay was performed following the OECD guidelines for testing of chemicals “Partition coefficient (n-octanol-water): shake flask method”, adopted by the council on 27 Jul. 1995.^(a) n-octanol used for logPOW determination;^(b) n-octanol used for logD assay. The formulas

[9] = tested on: HIV-1LAI; assay: Antiviral activity of brain-side medium from the BBB assay, MTT assay in MT-2 cells; format: cell-based
Description: The “brain-side” of the medium containing a compound collected in the BBB in vitro assay, was subjected to antiviral assays. Two HIV-1 isolates were employed, HIV-1LAI (Panel A) and HIV-1ERS104pre (Panel B). […] Dilution ranges were between 10-fold and 10,000-fold, and the percentage of viral inhibition was used as an endpoint. […] Assays were conducted in duplicate and error bars show standard deviations.
The assay was carried out using 10, 100, 1000 and 10000 times-diluted brain-side stocks of compounds.

[10] = Human immunodeficiency virus 1, MT2, read-out: EC50 HIV-1LAI, MT-2 cells, 100 TCID50, MTT assay
[11] = read-out: EC50 HIV-1LAI, MT-2 cells, 100 TCID50, MTT assay
[12] = Human immunodeficiency virus 1, MT2, MT-2 cells, 100 TCID50, MTT assay, read-out: EC50 HIV-1LAI
[13] = 10-fold diluted brain-side medium
[14] = 100-fold diluted brain-side medium

Row | Compound | EC50 [1, 10] [nM] | Selectivity Index [1] | EC50 [1, 11] [nM] | EC50 [2] [nM] | fold change of EC50 HIV-1MDR/G vs HIV-1ERS104pre [2] [fold] | EC50 [3] [nM] | fold change of EC50 HIV-1MDR/JSL vs HIV-1ERS104pre [3] [fold] | EC50 [4] [nM] | fold change of EC50 HIV-1MDR/C vs HIV-1ERS104pre [4] [fold] | EC50 [5] [nM] | fold change of EC50 HIV-1MDR/B vs HIV-1ERS104pre [5] [fold] | EC50 [6] [nM] | fold change of EC50 HIV-1MDR/TM vs HIV-1ERS104pre [6] [fold] | EC50 [7] [nM] | fold change of EC50 HIV-1MDR/MM vs HIV-1ERS104pre [7] [fold] | EC50 [1, 12] [nM] | Log POW (Octanol/Water) [8] | Concentration in octanol^(b) [8] | Concentration in octanol^(a) [8] [µM] | Log DOct/Tris pH 7.40 [8] | further results
1 | COC(=O)N[C@H](C(=O)N[C@@H](Cc1ccccc1)[C@@H](O)CN(Cc1ccc(-c2ccccn2)cc1)NC(=O)[C@@H](NC(=O)OC)C(C)(C)C)C(C)(C)C [ATV, Atazanavir] | 5 to 30 | 5,720 | 5 ± 1 | 42 | 19 | > 1000 | > 476 | 430 | 204 | 450 | 214 | 56 | 24 | 81 | 38 |  |  |  |  |  | 
2 | CC(C)CN(C[C@@H](O)[C@H](Cc1ccccc1)NC(=O)O[C@H]1CO[C@H]2OCC[C@H]21)S(=O)(=O)c1ccc(N)cc1 [DRV, darunavir] | 5 to 30 |  | 5 ± 1 | 14 |  | 25 |  | 5 |  |  |  | 30 |  | 10 |  |  |  |  |  |  | Log POW (Octanol/Water) ([8]; shake flask method): −0.63
3 | COc1ccc(S(=O)(=O)N(CC(C)C)C[C@@H](O)[C@H](Cc2ccccc2)NC(=O)OC2CO[C@H]3OCC(F)(F)[C@@H]23)cc1 (stereo partly drawn) [GRL-04810] |  | 21,875 |  | 4 | 2 | 21 | 10 | 2 | 1 | 14 | 7 | 4 | 2 | 2 | 1 | 0.8 | −0.14 | 72 µM and 72.00 µM | 70.00 | −0.29 | Concentration in tris buffer [8]: 42.32 µM; Concentration in water [8]: 99.78 µM; suppression of HIV-1LAI replication [9, 13]: 94%; suppression of HIV-1LAI replication [9, 14]: 45%
4 | CC(C)CN(C[C@@H](O)[C@H](Cc1ccccc1)NC(=O)O[C@H]1CO[C@H]2OCC(F)(F)[C@H]21)S(=O)(=O)c1ccc(N)cc1 [GRL-05010] |  | 12,333 |  | 4 | 1 | 20 | 7 | 2 | 1 | 11 | 3 | 4 | 2 | 3 | 1 | 3 | −0.83 | 14.09 µM | 18.70 | −1.01 | Concentration in tris buffer [8]: 49.84 µM; Concentration in water [8]: 94.55 µM; suppression of HIV-1LAI replication [9, 13]: 91%; suppression of HIV-1LAI replication [9, 14]: 73%
5 | CC(C)(C)NC(=O)[C@@H]1C[C@@H]2CCCC[C@@H]2CN1C[C@@H](O)[C@H](Cc1ccccc1)NC(=O)[C@H](CC(N)=O)NC(=O)c1ccc2ccccc2n1 [SQV, Saquinavir] |  | 843 |  | 39 | 10 | 530 | 133 | 310 | 78 | 350 | 90 | 100 | 25 | 110 | 27 |  |  |  |  |  | suppression levels of brain-side preparations compared (FIG. 5A) ([9]; HIV-1LAI): less than those of GRL-04810^brain and GRL-05010^brain
